Test results taken from patent US20110294766A1, “16 Alpha, 17 Alpha-Acetal Glucocorticosteroidal Derivatives and their Use” (AstraZeneca AB, priority 2008, published 2011).
pIC50: −log10 of the molar value.

Biological target: T1, recombinant human GR (Homo sapiens, UniProt P04150)
T1 construct: purchased Panvera/Invitrogen P2812 (kit P2893)
T1 sequence (P04150 1-777): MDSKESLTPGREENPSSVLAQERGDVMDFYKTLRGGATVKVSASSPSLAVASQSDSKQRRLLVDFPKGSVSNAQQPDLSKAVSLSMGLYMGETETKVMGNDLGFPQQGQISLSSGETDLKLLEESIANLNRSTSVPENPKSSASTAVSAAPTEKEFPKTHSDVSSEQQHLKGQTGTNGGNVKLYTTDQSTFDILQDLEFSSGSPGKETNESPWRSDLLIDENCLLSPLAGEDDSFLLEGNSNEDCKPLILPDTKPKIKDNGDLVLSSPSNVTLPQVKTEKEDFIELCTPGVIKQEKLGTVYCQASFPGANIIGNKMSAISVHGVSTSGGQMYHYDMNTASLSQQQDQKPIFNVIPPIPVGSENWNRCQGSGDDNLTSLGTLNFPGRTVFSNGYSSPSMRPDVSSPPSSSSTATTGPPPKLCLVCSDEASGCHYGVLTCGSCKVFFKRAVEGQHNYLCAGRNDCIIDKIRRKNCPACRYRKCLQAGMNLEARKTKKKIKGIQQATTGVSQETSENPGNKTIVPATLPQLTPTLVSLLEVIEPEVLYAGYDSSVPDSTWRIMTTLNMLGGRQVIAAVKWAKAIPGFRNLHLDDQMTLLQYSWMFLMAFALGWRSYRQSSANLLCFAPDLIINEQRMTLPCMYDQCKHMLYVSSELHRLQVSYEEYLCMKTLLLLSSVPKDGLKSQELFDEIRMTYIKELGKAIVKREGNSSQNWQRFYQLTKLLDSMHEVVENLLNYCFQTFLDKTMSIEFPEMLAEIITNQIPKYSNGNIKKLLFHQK
Assay: Human Glucocorticoid Receptor (GR) Assay (fluorescence polarization, Panvera/Invitrogen kit)
Settings: GS Red tracer, 2 hours at room temperature, 100% control 10 μM Dexamethasone, read-out: Inhibition of GR binding, IC50
Method: Human Glucocorticoid Receptor (GR) Assay The assay is based on a commercial kit from Panvera/Invitrogen (Part number P2893). The assay technology is fluorescence polarization. The kit utilises recombinant human GR (Panvera, Part number P2812), a Fluoromone™ labelled tracer (GS Red, Panvera, Part number P2894) and a Stabilizing Peptide 10× (Panvera, Part number P2815). The GR and Stabilizing Peptide reagents are stored at −70° C. while the GS Red is stored at −20° C. Also included in the kit are 1M DTT (Panvera, Part number P2325, stored at −20° C.) and GR Screening buffer 10× (Panvera, Part number P2814, stored at −70° C. initially but once thawed stored at room temperature). Avoid repeated freeze/thaws for all reagents. The GR Screening buffer 10× comprises 100 mM potassium phosphate, 200 mM sodium molybdate, 1 mM EDTA and 20% DMSO. Test compounds (1 μL) and controls (1 μL) in 100% DMSO were added to black polystyrene 384-well plates (Greiner low volume black flat-bottom, part number 784076). 0% control was 100% DMSO and 100% control was 10 μM Dexamethasone. Background solution (8 μL; assay buffer 10×, Stabilizing Peptide, DTT and ice cold MQ water) was added to the background wells. GS Red solution (7 μL; assay buffer 10×, Stabilizing Peptide, DTT, GS Red and ice cold water) was added to all wells except background wells. GR solution (7 μL; assay buffer 10×, Stabilizing Peptide, DTT, GR and ice cold water) was added to all wells. The plate was sealed and incubated in a dark at room temperature for 2 hours. The plate was read in an Analyst plate reader (LJL Biosystems/Molecular Devices Corporation) or other similar plate reader capable of recording fluorescence polarization (excitation wavelength 530 nm, emission wavelength 590 nm and a dichroic mirror at 561 nm).

COc1ccc([C@H]2O[C@@H]3C[C@H]4[C@@H]5CCC6=CC(=O)C=C[C@]6(C)[C@H]5[C@@H](O)C[C@]4(C)[C@]3(C(=O)SC)O2)c(F)c1 (single isomer, unassigned) [Example 38 (8S)]
pIC50: 9.06

C[C@]12C=CC(=O)C=C1[C@@H](F)C[C@H]1[C@@H]3C[C@H]4OC(c5ccco5)O[C@@]4(C(=O)SCC#N)[C@@]3(C)C[C@H](O)[C@@]12F (stereo partly drawn) [Example 1]
pIC50: 8.92

C[C@]12C=CC(=O)C=C1[C@@H](F)C[C@H]1[C@@H]3C[C@H]4OC(c5ccco5)O[C@@]4(C(=O)SCC#CCO)[C@@]3(C)C[C@H](O)[C@@]12F (stereo partly drawn) [Example 2]
pIC50: 8.92

C[C@]12C=CC(=O)C=C1[C@@H](F)C[C@H]1[C@@H]3C[C@H]4OC(c5ccco5)O[C@@]4(C(=O)SCF)[C@@]3(C)C[C@H](O)[C@@]12F (stereo partly drawn) [Example 3]
pIC50: 9.04

CSC(=O)[C@@]12O[C@@H](c3cccs3)O[C@@H]1C[C@H]1[C@@H]3C[C@H](F)C4=CC(=O)C=C[C@]4(C)[C@@]3(F)[C@@H](O)C[C@@]12C [Example 4, S-Methyl (4aS,4bR,5S,6aS,6bS,8S,9aR,10aS,10bS,12S)-4b,12-difluoro-5-hydroxy-4a,6a-dimethyl-2-oxo-8-(2-thienyl)-2,4a,4b,5,6,6a,9a,10,10a,10,11,12-dodecahydro-6bH-naphtho[2′,1′:4,5]indeno[1,2-d][1,3]dioxole-6b-carbothioate]
pIC50: 9.02

CSC(=O)[C@@]12OC(c3ccc(F)cc3F)O[C@@H]1C[C@H]1[C@@H]3C[C@H](F)C4=CC(=O)C=C[C@]4(C)[C@@]3(F)[C@@H](O)C[C@@]12C (stereo partly drawn) [Example 5, S-Methyl (4aS,4bR,5S,6aS,6bS,9aR,10aS,10bS,12S)-8-(2,4-difluorophenyl)-4b,12-difluoro-5-hydroxy-4a,6a-dimethyl-2-oxo-2,4a,4b,5,6,6a,9a,10,10a,10b,11,12-dodecahydro-6bH-naphtho[2′,1′:4,5]indeno[1,2-d][1,3]dioxole-6b-carbothioate]
pIC50: 8.96

C[C@]12C=CC(=O)C=C1[C@@H](F)C[C@H]1[C@@H]3C[C@H]4OC(c5ccc(F)cc5F)O[C@@]4(C(=O)SCF)[C@@]3(C)C[C@H](O)[C@@]12F (stereo partly drawn) [Example 6, S-(Fluoromethyl)(4aS,4bR,5S,6aS,6bS,9aR,10aS,10bS,12S)-8-(2,4-difluorophenyl)-4b,12-difluoro-5-hydroxy-4a,6a-dimethyl-2-oxo-2,4a,4b,5,6,6a,9a,10,10a,10b,11,12-dodecahydro-6bH-naphtho[2′,1′:4,5]indeno[1,2-d][1,3]dioxole-6b-carbothioate]
pIC50: 8.92

Cc1ccc([C@H]2O[C@@H]3C[C@H]4[C@@H]5C[C@H](F)C6=CC(=O)C=C[C@]6(C)[C@@]5(F)[C@@H](O)C[C@]4(C)[C@]3(C(=O)SCF)O2)o1 [Example 7, S-(Fluoromethyl)(4aS,4bR,5S,6aS,6bS,8S,9aR,10aS,10bS,12S)-4b,12-difluoro-5-hydroxy-4a,6a-dimethyl-8-(5-methyl-2-furyl)-2-oxo-2,4a,4b,5,6,6a,9a,10,10a,10b,11,12-dodecahydro-6bH-naphtho[2′,1′:4,5]indeno[1,2-d][1,3]dioxole-6b-carbothioate]
pIC50: 9.00

CSC(=O)[C@@]12OC(c3ccc(C)o3)O[C@@H]1C[C@H]1[C@@H]3C[C@H](F)C4=CC(=O)C=C[C@]4(C)[C@@]3(F)[C@@H](O)C[C@@]12C (stereo partly drawn) [Example 8, S-Methyl (4aS,4bR,5S,6aS,6bS,9aR,10aS,10bS,12S)-4b,12-difluoro-5-hydroxy-4a,6a-dimethyl-8-(5-methyl-2-furyl)-2-oxo-2,4a,4b,5,6,6a,9a,10,10a,10b,11,12-dodecahydro-6bH-naphtho[2′,1′:4,5]indeno[1,2-d][1,3]dioxole-6b-carbothioate]
pIC50: 8.72

C[C@]12C=CC(=O)C=C1[C@@H](F)C[C@H]1[C@@H]3C[C@H]4OC(c5cccs5)O[C@@]4(C(=O)SCC#N)[C@@]3(C)C[C@H](O)[C@@]12F (stereo partly drawn) [Example 9, S-(Cyanomethyl)(4aS,4bR,5S,6aS,6bS,9aR,10aS,10bS,12S)-4b,12-difluoro-5-hydroxy-4a,6a-dimethyl-2-oxo-8-(2-thienyl)-2,4a,4b,5,6,6a,9a,10,10a,10b,11,12-dodecahydro-6bH-naphtho[2′,1′:4,5]indeno[1,2-d][1,3]dioxole-6b-carbothioate]
pIC50: 9.24

Cc1ccc(C2O[C@@H]3C[C@H]4[C@@H]5C[C@H](F)C6=CC(=O)C=C[C@]6(C)[C@@]5(F)[C@@H](O)C[C@]4(C)[C@]3(C(=O)SCC#N)O2)o1 (stereo partly drawn) [Example 10, S-(Cyanomethyl)(4aS,4bR,5S,6aS,6bS,9aR,10aS,10bS,12S)-4b,12-difluoro-5-hydroxy-4a,6a-dimethyl-8-(5-methyl-2-furyl)-2-oxo-2,4a,4b,5,6,6a,9a,10,10a,10b,11,12-dodecahydro-6bH-naphtho[2′,1′:4,5]indeno[1,2-d][1,3]dioxole-6b-carbothioate]
pIC50: 8.96

C[C@]12C=CC(=O)C=C1[C@@H](F)C[C@H]1[C@@H]3C[C@H]4OC(c5ccc(Cl)o5)O[C@@]4(C(=O)SCF)[C@@]3(C)C[C@H](O)[C@@]12F (stereo partly drawn) [Example 11, S-(Fluoromethyl)(4aS,4bR,5S,6aS,6bS,9aR,10aS,10bS,12S)-8-(5-chloro-2-furyl)-4b,12-difluoro-5-hydroxy-4a,6a-dimethyl-2-oxo-2,4a,4b,5,6,6a,9a,10,10a,10b,11,12-dodecahydro-6bH-naphtho[2′,1′:4,5]indeno[1,2-d][1,3]dioxole-6b-carbothioate]
pIC50: 9.23

C[C@]12C=CC(=O)C=C1[C@@H](F)C[C@H]1[C@@H]3C[C@H]4OC(c5cc6ccccc6o5)O[C@@]4(C(=O)SCF)[C@@]3(C)C[C@H](O)[C@@]12F (stereo partly drawn) [Example 12, S-(Fluoromethyl)(4aS,4bR,5S,6aS,6bS,9aR,10aS,10bS,12S)-8-(1-benzofuran-2-yl)-4b,12-difluoro-5-hydroxy-4a,6a-dimethyl-2-oxo-2,4a,4b,5,6,6a,9a,10,10a,10b,11,12-dodecahydro-6bH-naphtho[2′,1′:4,5]indeno[1,2-d][1,3]dioxole-6b-carbothioate]
pIC50: 9.07

Cc1ccsc1C1O[C@@H]2C[C@H]3[C@@H]4C[C@H](F)C5=CC(=O)C=C[C@]5(C)[C@@]4(F)[C@@H](O)C[C@]3(C)[C@]2(C(=O)SCF)O1 (stereo partly drawn) [Example 13, S-(Fluoromethyl)(4aS,4bR,5S,6aS,6bS,9aR,10aS,10bS,12S)-4b,12-difluoro-5-hydroxy-4a,6a-dimethyl-8-(3-methyl-2-thienyl)-2-oxo-2,4a,4b,5,6,6a,9a,10,10a,10b,11,12-dodecahydro-6bH-naphtho[2′,1′:4,5]indeno[1,2-d][1,3]dioxole-6b-carbothioate]
pIC50: 9.26

C[C@]12C=CC(=O)C=C1[C@@H](F)C[C@H]1[C@@H]3C[C@H]4OC(c5ccc(C(F)(F)F)o5)O[C@@]4(C(=O)SCF)[C@@]3(C)C[C@H](O)[C@@]12F (stereo partly drawn) [Example 14, S-(Fluoromethyl)(4aS,4bR,5S,6aS,6bS,9aR,10aS,10bS,12S)-4b,12-difluoro-5-hydroxy-4a,6a-dimethyl-2-oxo-8-[5-(trifluoromethyl)-2-furyl]-2,4a,4b,5,6,6a,9a,10,10a,10b,11,12-dodecahydro-6bH-naphtho[2′,1′:4,5]indeno[1,2-d][1,3]dioxole-6b-carbothioate]
pIC50: 8.92
